pIC50: −log10 of the molar value.
What was measured:
CSBP2 = biological target: T1, CSBP2 (Homo sapiens, UniProt Q16539); test: CSBP Kinase Assay; assay type: biochemical; conditions: yeast-expressed purified CSBP2; 170 uM ATP (Km); T669 peptide substrate; 30° C. for 10 min
T1 construct: made in house; host or cells: yeast
Experimental: This assay measures the CSBP-catalyzed transfer of ^32P from [a-^32P]ATP to threonine residue in an epidermal growth factor receptor (EGFR)-derived peptide (T669) with the following sequence: […] (residues 661-681). (See Gallagher et al., “Regulation of Stress Induced Cytokine Production by Pyridinyl Imidazoles: Inhibition of CSPB Kinase”, BioOrganic & Medicinal Chemistry, to be published 1996).
Kinase reactions (total volume 30 ul) contain: 25 mM Hepes buffer, pH 7.5; 10 mM MgCl2; 170 uM ATP^(1); 10 uM Na ortho vanadate; 0.4 mM T669 peptide; and 20-80 ng of yeast-expressed purified CSBP2 (see Lee et al., Nature 300, n(72), 739-746 (December 1994)). Compounds (5 ul from [6×] stock^(2)) are pre-incubated with the enzyme and peptide for 20 min on ice prior to starting the reactions with 32P/MgATP. Reactions are incubated at 30° C. for 10 min and stopped by adding 10 ul of 0.3 M phosphoric acid. 32P-labeled peptide is separated on phosphocellulose (Wattman, p81) filters by spotting 30 ul reaction mixture. Filters are washed 3 times with 75 mM phosphoric acid followed by 2 washes with H2O, and counted for 32P.
(1) The Km of CSBP for ATP was determined to be 170 uM. Therefore, compounds screened at the Km value of ATP.
(2) Compounds are usually dissolved in DMSO and are diluted in 25 mM Hepes buffer to get final concentration of DMSO of 0.17%.

T1 sequence (Q16539 whole entry): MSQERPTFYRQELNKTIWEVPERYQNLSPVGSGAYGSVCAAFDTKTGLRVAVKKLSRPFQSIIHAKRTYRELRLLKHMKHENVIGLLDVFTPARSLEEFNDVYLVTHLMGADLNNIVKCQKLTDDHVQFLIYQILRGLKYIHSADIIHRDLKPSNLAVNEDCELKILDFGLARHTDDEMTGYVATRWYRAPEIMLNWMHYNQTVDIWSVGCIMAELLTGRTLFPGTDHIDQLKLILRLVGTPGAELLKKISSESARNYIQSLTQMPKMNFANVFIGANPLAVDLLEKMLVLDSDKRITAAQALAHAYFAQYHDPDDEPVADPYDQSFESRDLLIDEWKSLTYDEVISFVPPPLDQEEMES

Nc1nccc(C2=C(c3ccc(F)cc3)CCC2)n1 [Example 1, 1-[4-(2-Aminopyrimidinyl)]-2-(4-fluorophenyl)cyclopenten-1-ene]
pIC50 (CSBP2): > 4.30
melting point: 134 to 135 °C

From patent US6362193B1, “Cycloalkenyl substituted compounds” (SmithKline Beecham Corporation, priority 1997, dated 2002)
